In patent EP4656642A1, “ESTROGEN RECEPTOR PROTEOLYSIS TARGETING CHIMERA COMPOUND AND USE THEREOF” (GAN & LEE PHARM CO., LTD, priority 2023, dated 2024):

Experiments:
Type in all cases: cell-based
T-47D cells = assay: Inhibition of cell proliferation in T-47D cells (CCK-8, 6 days); settings: 6 days of treatment, Table 3
Description: Test Example 2: Inhibitory effect of the PROTAC compounds provided in the present disclosure on cell proliferation in T-47D cells (source ATCC)
The complete medium required for T-47D cells was 1640 ( ATCC, Product number: A10491-01) basal medium containing 10% fetal bovine serum. T-47D cells were inoculated in 96-well plates at a density of 3,000 cells/well, and different concentrations of the PROTAC compounds 1-55 provided in the examples of the present disclosure and a positive control sample ARV-471 (source: Innochem) were prepared to treat cells, and the cells were treated at 37°C in a cell culture incubator with 5% CO2 for 6 days. Cell viability was detected using a CCK-8 kit (Beyotime, Product number: C0040) according to the manufacturer's instructions. […] Table 2 IC50 values for inhibition of the proliferation of T-47D cells by the PROTAC compounds provided by the present disclosure and the positive control sample

MCF-7 cells = assay: Inhibition of cell proliferation of MCF-7 cells (CCK-8, 9 days); settings: treated for 9 days, CCK-8 kit (Table 6)
Summary of the method: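 MCF-7 cells seeded at 800 cells/well in DMEM with 10% FBS, exposed to a range of compound concentrations for 9 days at 37°C, 5% CO2. Viability read by CCK-8; IC50 derived for proliferation inhibition.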

ERα [1] = target: T1, ERα (Homo sapiens, UniProt P03372); assay: Degradation of ERα in MCF-7 cells (immunoblotting, 4 h)
T1 sequence (P03372 1-595): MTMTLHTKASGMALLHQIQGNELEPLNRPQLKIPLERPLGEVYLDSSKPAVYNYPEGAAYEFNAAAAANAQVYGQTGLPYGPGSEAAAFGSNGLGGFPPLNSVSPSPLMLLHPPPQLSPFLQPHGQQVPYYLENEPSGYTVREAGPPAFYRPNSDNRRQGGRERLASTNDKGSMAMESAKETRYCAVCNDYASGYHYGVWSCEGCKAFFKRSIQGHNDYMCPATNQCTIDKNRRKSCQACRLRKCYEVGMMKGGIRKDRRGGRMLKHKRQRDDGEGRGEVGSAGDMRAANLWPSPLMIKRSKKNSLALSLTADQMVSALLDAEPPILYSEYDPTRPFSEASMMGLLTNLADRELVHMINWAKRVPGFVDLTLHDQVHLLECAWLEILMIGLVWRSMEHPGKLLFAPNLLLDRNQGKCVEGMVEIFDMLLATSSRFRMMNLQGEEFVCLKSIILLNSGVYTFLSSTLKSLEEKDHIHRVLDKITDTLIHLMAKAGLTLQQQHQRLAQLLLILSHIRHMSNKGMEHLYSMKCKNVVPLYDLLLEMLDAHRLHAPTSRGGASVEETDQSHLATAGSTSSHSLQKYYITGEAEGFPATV
Summary of the method: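 MCF-7 cells treated 4 h at 37°C with compounds at 0.15-1000nM final. ERα in lysates measured by immunoblot, with band grayscale normalized to an internal reference protein. Degradation rate calculated against DMSO-treated control.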

ERα [2] = target: T1, ERα; assay: Degradation of ERα in T-47D cells (immunoblotting, 4 h); set-up: host or cells: T-47D
Summary of the method: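 T-47D cells were treated with compound (final 0.15-1000 nM, DMSO) for 4 h at 37°C, 5% CO2. Cells were lysed in RIPA buffer with protease inhibitor, and ERα protein in the cleared lysate was measured by immunoblotting.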

Row | Structure (SMILES) | IC50 (T-47D cells) [nM] | IC50 (MCF-7 cells) [nM] | Degradation rate (%) of ERα in MCF-7 cells (ERα [1]; 1nM compound) [%] | Degradation rate (%) of ERα in MCF-7 cells (ERα [1]; 10nM compound) [%] | Degradation rate (%) of ERα in T-47D cells (ERα [2]; 1nM compound) [%] | Degradation rate (%) of ERα in T-47D cells (ERα [2]; 10nM compound) [%]
1 | O=C1CCC(N2C(=O)c3cc4c(cc3C2=O)OC2(CC4)CN(CC3CCC4(CC3)CCN(c3ccc([C@@H]5c6ccc(O)cc6CC[C@@H]5c5ccccc5)cc3)CC4)C2)C(=O)N1 (stereo partly drawn) [A41] | 23 | 33 | -9 | -18 | 8 | 17
2 | O=C1CCC(N2C(=O)c3cc4c(cc3C2=O)OCC2(CCN(CC3CCC5(CC3)CCN(c3ccc([C@@H]6c7ccc(O)cc7CC[C@@H]6c6ccccc6)cc3)CC5)CC2)C4)C(=O)N1 (stereo partly drawn) [A42] | 60 | 38 | -49 | -36 | 41 | 30
3 | O=C1CCC(N2C(=O)c3cc4c(cc3C2=O)OC2(CC4)CCN(CC3CCC4(CC3)CCN(c3ccc([C@@H]5c6ccc(O)cc6CC[C@@H]5c5ccccc5)cc3)CC4)CC2)C(=O)N1 (stereo partly drawn) [A43] | 41 | 62 | -2 | -8 | 7 | 26
4 | O=C1CCC(N2Cc3ccc4c(c3C2=O)OC2(CC4)CCN(C3CC4(CCN(c5ccc([C@@H]6c7ccc(O)cc7CC[C@@H]6c6ccccc6)cc5)CC4)C3)CC2)C(=O)N1 (stereo partly drawn) [A45] | 79 | 160 | -3 | -15 | -6 | -28
5 | O=C1CCC(N2Cc3cc4c(cc3C2=O)CCC2(CN(C(=O)C3CCC5(CC3)CN(c3ccc([C@@H]6c7ccc(O)cc7CC[C@@H]6c6ccccc6)cc3)C5)C2)O4)C(=O)N1 (stereo partly drawn) [A46] | 10.6 | 1250 | -22 | -26 | 7 | 33
6 | O=C1CCC(N2Cc3cc4c(cc3C2=O)OC2(CC4)CN(C(=O)C3CCC4(CC3)CN(c3ccc([C@@H]5c6ccc(O)cc6CC[C@@H]5c5ccccc5)cc3)C4)C2)C(=O)N1 (stereo partly drawn) [A47] | 11.7 | 871 | 9 | 14 | -10 | 37
7 | O=C1CCC(N2Cc3cc4c(cc3C2=O)CCC2(CN(C(=O)C3CC5(CCN(c6ccc([C@@H]7c8ccc(O)cc8CC[C@@H]7c7ccccc7)cc6)CC5)C3)C2)O4)C(=O)N1 (stereo partly drawn) [A48] | 12.3 | 7440 | 4 | 11 | -37 | 23
8 | O=C1CCC(N2Cc3cc4c(cc3C2=O)OC2(CC4)CN(C(=O)C3CC4(CCN(c5ccc([C@@H]6c7ccc(O)cc7CC[C@@H]6c6ccccc6)cc5)CC4)C3)C2)C(=O)N1 (stereo partly drawn) [A49] | 9.63 | 11100 | 9 | 37 | 17 | 48
9 | O=C1CCC(N2Cc3cc4c(cc3C2=O)CCC2(CN(C(=O)C3CCN(c5ccc([C@@H]6c7ccc(O)cc7CC[C@@H]6c6ccccc6)cc5)CC3)C2)O4)C(=O)N1 (stereo partly drawn) [A50] | 4.16 | 4080 | 11 | 27 | 24 | 53
10 | O=C1CCC(N2Cc3cc4c(cc3C2=O)OC2(CC4)CN(C(=O)C3CCN(c4ccc([C@@H]5c6ccc(O)cc6CC[C@@H]5c5ccccc5)cc4)CC3)C2)C(=O)N1 (stereo partly drawn) [A51] | 12.2 | 2920 | 5 | 15 | -10 | 3
11 | O=C1CCC(N2Cc3c(ccc4c3OCC43CCN(C(=O)C4CCN(c5ccc([C@@H]6c7ccc(O)cc7CC[C@@H]6c6ccccc6)cc5)CC4)CC3)C2=O)C(=O)N1 (stereo partly drawn) [A52] | 10.9 | 5680 | -22 | -33 | 3 | 2
12 | O=C1CCC(N2Cc3cc4c(cc3C2=O)CCC2(CN(C3CCN(C5CCN(c6ccc([C@@H]7c8ccc(O)cc8CC[C@@H]7c7ccccc7)cc6)CC5)CC3)C2)O4)C(=O)N1 (stereo partly drawn) [A53] | 3.87 | < 0.256 | 10 | 45 | 37 | 66
13 | O=C1CCC(N2Cc3c(ccc4c3OCC43CCN(C4CCN(C5CCN(c6ccc([C@@H]7c8ccc(O)cc8CC[C@@H]7c7ccccc7)cc6)CC5)CC4)CC3)C2=O)C(=O)N1 (stereo partly drawn) [A54] | 6.16 | < 0.256 | 40 | 65 | 15 | 62
14 | O=C1CCC(N2Cc3c(ccc4c3OC3(CC4)CCN(C4CCN(C5CN(c6ccc([C@@H]7c8ccc(O)cc8CC[C@@H]7c7ccccc7)cc6)C5)CC4)CC3)C2=O)C(=O)N1 (stereo partly drawn) [A60] | 18.3 | 825 | -31 | -14 | 11 | -1
15 | O=C1CCC(N2Cc3c(ccc4c3OCC43CCN(C4CCN(C5CN(c6ccc([C@@H]7c8ccc(O)cc8CC[C@@H]7c7ccccc7)cc6)C5)CC4)CC3)C2=O)C(=O)N1 (stereo partly drawn) [A61] | 27 | 837 | -4 | -19 | 9 | -2
16 | O=C1CCC(N2Cc3cc4c(cc3C2=O)CCC2(CN(C(=O)CN3CCC5(CC3)CCN(c3ccc([C@@H]6c7ccc(O)cc7CC[C@@H]6c6ccccc6)cc3)CC5)C2)O4)C(=O)N1 (stereo partly drawn) [A69] | 3.53 | 90.8 | 21 | 35 | 19 | 67
17 | O=C1CCC(N2Cc3c(ccc4c3OCC43CCN(C4CCN(C(=O)C5CC6(CCN(c7ccc([C@@H]8c9ccc(O)cc9CC[C@@H]8c8ccccc8)cc7)CC6)C5)CC4)CC3)C2=O)C(=O)N1 (stereo partly drawn) [A85] | 1.12 | 9880 | 45 | 65 | 68 | 88
18 | O=C1CCC(N2Cc3c(ccc4c3OCC43CCN(C(=O)C4CC5(CCN(c6ccc([C@@H]7c8ccc(O)cc8CC[C@@H]7c7ccccc7)cc6)CC5)C4)CC3)C2=O)C(=O)N1 (stereo partly drawn) [A86] | 1.64 | 85 | 5 | 32 | 46 | 74
19 | CC(C(=O)N1CCC2(CC1)COc1c2ccc2c1CN(C1CCC(=O)NC1=O)C2=O)N1CCC2(CCN(c3ccc([C@@H]4c5ccc(O)cc5CC[C@@H]4c4ccccc4)cc3)CC2)C1 (stereo partly drawn) [A88] | 1.18 | 66.8 | 57 | 54 | 65 | 72
